# Measured values reported in patent publication US20230391772A1, “METHODS AND COMPOSITIONS FOR TARGETED PROTEIN DEGRADATION” (Ranok Therapeutics (Hangzhou) Co. Ltd., priority 2020, published 2023).
# Experiments:
# KRAS(G12C) [1] = biological target: T1, KRAS(G12C) (Homo sapiens, UniProt P01116, G12C); assay: KRAS(G12C) Western blot protein degradation assay in LU65A cells; type: cell-based; parameters: LU65A human lung cancer cell line, which expresses KRAS(G12C); host or cells: LU65A; conditions: 6 hr
# Protocol: The following cancer cell lines were employed: BT-474 human breast carcinoma (ATCC, #HTB-20); MIA PaCa-2 human pancreatic carcinoma [2 copies KRAS(G12C)](ATCC, #CRL-1420); NCI-H23 human non-small cell lung cancer [1 copy KRAS(G12C)](ATCC, #CRL-5800); NCI-H358 human non-small cell lung cancer [1 copy KRAS(G12C)](ATCC, #CRL-5807); LU65A human lung carcinoma (Pharmaron, Beijing, China). Cell lines were cultured essentially according to ATCC and Pharmaron recommendations.
# KRAS(G12C) Western Blot Protein Degradation Assay
# The MIA PaCa-2 human pancreatic carcinoma cell line and LU65A human lung cancer cell line, which expresses KRAS(G12C), were seeded in 6- or 12-well tissue culture plates, and after 1 hr, test compounds were added at various concentrations and incubated at 37° C./5% CO2 for 48 hr (MIA Paca-2) and 6 hr (LU65A) respectively. Cells were then washed with cold PBS, aspirated and cold RIPA buffer containing a protease/phosphatase inhibitor cocktail was added to lyse cells. After centrifugation, the total protein concentrations of cell lysates were determined using the BCA protein assay. Samples were normalized for equivalent protein concentrations, 5×SDS-PAGE loading buffer added and denatured at 100° C. for 10 min. 20 μl of each sample/well was loaded on a SDS-PAGE gel and electrophoresed for 20 min at 80 V, then 120 V for 1.5 hr. Gels were then electroblotted to nitrocellulose membranes using a wet-transfer method at 250 mA for 2.5 hr. Membranes were incubated with blocking buffer for 1 hr and washed 3 times with TBST for 5 min. Membranes were then incubated with anti-KRAS (Sigma-Aldrich, #SAB1404011) and anti-β-Actin monoclonal antibodies (Cell Signaling Technology, #3700) diluted in blocking buffer at 4° C. overnight per the manufacturer's recommendations. After washing 3 times, blots were incubated with appropriately labeled secondary antibodies for 1 hr at room temperature and washed again. Fluorescence imaging and quantitation was performed using a LI-COR Odyssey. Results was analyzed using GraphPad Prism 7 software. Compound degradation of was determined by the following equation and DC50 values (the concentration at which 50% of the maximal degradation of KRAS occurs) calculated using GraphPad Prism 7 software:
# % Inhibition=100−(D−B)/(S−B)*100%. • S: Fluorescence intensity of cells with antibody • D: Fluorescence intensity of compound-treated cells with antibody • B: Fluorescence intensity of cells without antibody
# [2] = tested on: MIA PaCa-2 human pancreatic carcinoma; assay: MIA PaCa-2 CCK-8 proliferation assay; type: cell-based; conditions: MIA PaCa-2 cells
# Outline: (§1)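 KRAS(G12C) lines were used: MIA PaCa-2 with 2 copies, and NCI-H358 and NCI-H23 with 1 copy each. Cells were treated with 3-fold compound dilutions from 20 μM to 1.02 nM, and proliferation was read by CCK-8 absorbance. % inhibition was calculated against DMSO-treated cells after subtracting the cell-free medium blank.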
# KRAS(G12C) [3] = biological target: T1, KRAS(G12C); assay: KRAS(G12C)/SOS1 homogeneous time-resolved fluorescence (HTRF) assay; parameters: purchased Cisbio 63ADK000CB16PEG; conditions: absence of GTP, 4° C. for 3 hr, read-out: KRAS (G12C) binding
# Outline: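 HTRF kit measuring compound-induced block of KRAS(G12C)-SOS1 interaction without GTP. Compounds tested as 3-fold serial dilutions down to 1.02 nM, incubated with reaction components 3 h at 4 °C in sealed plates before fluorescence read.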
# HSP90a protein = biological target: T2, HSP90a protein (Homo sapiens, UniProt P07900); assay: HSP90α-binding fluorescent polarization (FP) assay, BODIPY-labeled RNK04010 probe; conditions: FP competition with RNK04010 (BODIPY-labeled), 5 nM, 300 min at 25° C.
# T2 construct: purchased BPS Bioscience 50298
# Outline: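 Displacement of a 5 nM fluorescent HSP90 ligand from the N-terminal HSP90a domain by FP. Incubation ran at 25° C: 120 min for the FITC-geldanamycin tracer, 300 min for the BODIPY-conjugated triazolone RNK04010.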
# [4] = tested on: NCI-H358 human non-small cell lung cancer; assay: NCI-H358 CCK-8 proliferation assay; type: cell-based; conditions: NCI-H358 cells, 72 hr
# Outline: as §1
# T1 sequence (P01116 1-188 isoform P01116-2 G12C): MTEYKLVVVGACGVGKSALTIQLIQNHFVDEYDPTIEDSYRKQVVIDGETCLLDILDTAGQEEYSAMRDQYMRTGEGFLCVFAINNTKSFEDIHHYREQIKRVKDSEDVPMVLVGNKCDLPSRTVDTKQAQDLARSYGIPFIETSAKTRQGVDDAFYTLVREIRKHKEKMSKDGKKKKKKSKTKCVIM
Structure (SMILES),DC50 (KRAS(G12C) [1]),EC50 ([2]; 72 hr),"EC50 ([2]; Homo sapiens, MIA PaCa-2, 72 h)",IC50 (KRAS(G12C) [3]),IC50 (HSP90a protein),EC50 [4]
"C=CC(=O)N1CCN(c2nc(OCCN3CCC(C(=O)N4CCN(Cc5ccc(-n6c(C(=O)NCC(F)(F)F)nnc6-c6cc(C)c(O)cc6O)cc5)CC4)CC3)nc3c2CCN(c2cccc4cccc(Cl)c24)C3)C[C@@H]1CC#N [Compound 253, (S)-4-(4-((4-(1-(2-((4-(4-acryloyl-3-(cyanomethyl)piperazin-1-yl)-7-(8-chloronaphthalen-1-yl)-5,6,7,8-tetrahydropyrido[3,4-d]pyrimidin-2-yl)oxy)ethyl)piperidine-4-carbonyl)piperazin-1-yl)methyl)phenyl)-5-(2,4-dihydroxy-5-methylphenyl)-N-(2,2,2-trifluoroethyl)-4H-1,2,4-triazole-3-carboxamide]",> 1000 nM,100 to 1000 nM,,,,
"C=CC(=O)N1CCN(c2nc(OC[C@@H]3C[C@H](N4CCN(Cc5ccc(-n6c(C(=O)NCC)nnc6-c6cc(C(C)C)c(O)cc6O)cc5)CC4)CN3C)nc3c2CCN(c2cccc4ccccc24)C3)C[C@@H]1CC#N [Compound 271, 4-[4-({4-[(3S,5S)-5-[({4-[(3S)-3-(cyanomethyl)-4-(prop-2-enoyl)piperazin-1-yl]-7-(naphthalen-1-yl)-5H,6H,8H-pyrido[3,4-d]pyrimidin-2-yl}oxy)methyl]-1-methylpyrrolidin-3-yl]piperazin-1-yl}methyl)phenyl]-5-(2,4-dihydroxy-5-isopropylphenyl)-N-ethyl-1,2,4-triazole-3-carboxamide]",100 to 1000 nM,,100 to 1000 nM,,,
"CC(=O)N1CCN(c2nc(NCCC(=O)N3CCC(Cc4ccc(CN(C)Cc5ccc(-n6c(C(=O)NCC(F)(F)F)nnc6-c6cc(C(C)C)c(O)cc6O)cc5)cc4)CC3)nc3c2CCN(c2cccc4ccccc24)C3)C[C@H]1CC#N [Compound 123, (R)-4-(4-(((4-((1-(3-((4-(4-acetyl-3-(cyanomethyl)piperazin-1-yl)-7-(naphthalen-1-yl)-5,6,7,8-tetrahydropyrido[3,4-d]pyrimidin-2-yl)amino)propanoyl)piperidin-4-yl)methyl)benzyl)(methyl)amino)methyl)phenyl)-5-(2,4-dihydroxy-5-isopropylphenyl)-N-(2,2,2-trifluoroethyl)-4H-1,2,4-triazole-3-carboxamide, trifluoroacetic acid]",,,100 to 1000 nM,,> 1000 nM,100 to 1000 nM
"C=CC(=O)N1CCN(c2nc(NCCC(=O)N3CCC(Cc4ccc(CN(C)Cc5ccc(-n6c(C(=O)NCC(F)(F)F)nnc6-c6cc(C(C)C)c(O)cc6O)cc5)cc4)CC3)nc3c2CCN(c2cccc4ccccc24)C3)C[C@H]1CC#N [Compound 110, (R)-4-(4-(((4-((1-(3-((4-(4-acryloyl-3-(cyanomethyl)piperazin-1-yl)-7-(naphthalen-1-yl)-5,6,7,8-tetrahydropyrido[3,4-d]pyrimidin-2-yl)amino)propanoyl)piperidin-4-yl)methyl)benzyl)(methyl)amino)methyl)phenyl)-5-(2,4-dihydroxy-5-isopropylphenyl)-N-(2,2,2-trifluoroethyl)-4H-1,2,4-triazole-3-carboxamide, trifluoroacetic acid]",,,> 1000 nM,,> 1000 nM,> 1000 nM
"C=C(F)C(=O)N1CCN(c2nc(OC[C@@H]3CCCN3CCCOCCC(=O)NCc3ccc(-n4c(O)nnc4-c4cc(CC)c(O)cc4O)cc3)nc3c2CCN(c2cccc4cccc(Cl)c24)C3)C[C@@H]1CC#N [Compound 161, 3-(3-((S)-2-(((7-(8-chloronaphthalen-1-yl)-4-((S)-3-(cyanomethyl)-4-(2-fluoroacryloyl)piperazin-1-yl)-5,6,7,8-tetrahydropyrido[3,4-d]pyrimidin-2-yl)oxy)methyl)pyrrolidin-1-yl)propoxy)-N-(4-(3-(5-ethyl-2,4-dihydroxyphenyl)-5-hydroxy-4H-1,2,4-triazol-4-yl)benzyl)propanamide]",,,> 1000 nM,100 to 1000 nM,100 to 1000 nM,> 1000 nM

# Results, then the compound that gave them:
DC50 (KRAS(G12C) [1]),EC50 ([2]; 72 hr),"EC50 ([2]; Homo sapiens, MIA PaCa-2, 72 h)",IC50 (KRAS(G12C) [3]),IC50 (HSP90a protein),EC50 [4],Structure (SMILES)
,,,> 1000 nM,100 to 1000 nM,100 to 1000 nM,CC(C)c1cc(-c2nnc(C(=O)NCC(F)(F)F)n2-c2ccc(CC3CCN(Cc4ccc(CNC(=O)CCNc5nc6c(c(N7CCN(C(=O)C(C)(C)C)CC7)n5)CCN(c5cc(O)cc7ccccc57)C6)cc4)CC3)cc2)c(O)cc1O [Compound 156]
,,,> 1000 nM,100 to 1000 nM,> 1000 nM,"C=CC(=O)N1CCN(c2nc(OC[C@@H]3CCCN3C(=O)C3CCN(Cc4ccc(-n5c(O)nnc5-c5cc(C(C)C)c(O)cc5O)cc4)CC3)nc3c2CCN(c2cccc4cccc(C)c24)C3)C[C@@H]1CC#N [Compound 155, 2-((S)-1-acryloyl-4-(2-(((S)-1-(1-(4-(3-(2,4-dihydroxy-5-isopropylphenyl)-5-hydroxy-4H-1,2,4-triazol-4-yl)benzyl)piperidine-4-carbonyl)pyrrolidin-2-yl)methoxy)-7-(8-methylnaphthalen-1-yl)-5,6,7,8-tetrahydropyrido[3,4-d]pyrimidin-4-yl)piperazin-2-yl)acetonitrile, trifluoroacetic acid]"
,,> 1000 nM,> 1000 nM,< 100 nM,> 1000 nM,"C=C(F)C(=O)N1CCN(c2nc(OC[C@@H]3CCCN3CCCOCCC(=O)NCc3ccc(-n4c(O)nnc4-c4cc(C(C)C)c(O)cc4O)cc3)nc3c2CCN(c2cccc4cccc(Cl)c24)C3)C[C@@H]1CC#N [Compound 160, 3-(3-((S)-2-(((7-(8-chloronaphthalen-1-yl)-4-((S)-3-(cyanomethyl)-4-(2-fluoroacryloyl)piperazin-1-yl)-5,6,7,8-tetrahydropyrido[3,4-d]pyrimidin-2-yl)oxy)methyl)pyrrolidin-1-yl)propoxy)-N-(4-(3-(2,4-dihydroxy-5-isopropylphenyl)-5-hydroxy-4H-1,2,4-triazol-4-yl)benzyl)propenamide]"
,,> 1000 nM,,100 to 1000 nM,100 to 1000 nM,"CCC(=O)N1CCN(c2nc(NCCC(=O)N3CCC(Cc4ccc(CN(C)Cc5ccc(-n6c(O)nnc6-c6cc(C(C)C)c(O)cc6O)cc5)cc4)CC3)nc3c2CCN(c2cc(O)cc4ccccc24)C3)CC1 [Compound 63, trifluoroacetic acid]"
,,,> 1000 nM,100 to 1000 nM,100 to 1000 nM,"C=CC(=O)N1CCN(c2nc(NCCC(=O)N3CCC(CN4CCN(Cc5ccc(-n6c(C(=O)NCC(F)(F)F)nnc6-c6cc(CC)c(O)cc6O)cc5)CC4)CC3)nc3c2CCN(c2cccc4cccc(Cl)c24)C3)C[C@H]1CC#N [Compound 80, (R)-4-(4-((4-((1-(3-((4-(4-acryloyl-3-(cyanomethyl)piperazin-1-yl)-7-(8-chloronaphthalen-1-yl)-5,6,7,8-tetrahydropyrido[3,4-d]pyrimidin-2-yl)amino)propanoyl)piperidin-4-yl)methyl)piperazin-1-yl)methyl)phenyl)-5-(5-ethyl-2,4-dihydroxyphenyl)-N-(2,2,2-trifluoroethyl)-4H-1,2,4-triazole-3-carboxamide, trifluoroacetic acid]"
